Source: US20240024488A1, “COMPOUNDS AND USES THEREOF” (Foghorn Therapeutics Inc., priority 2020, published 2024)

Columns and labels:
[1] = biological target: T1, HiBit-BRM fusion protein (Homo sapiens, UniProt P51531); experiment: HiBiT-BRM cell-based degradation assay (Nano-Glo HiBiT Lytic Detection, 24 h); details: HeLa cell line expressing HiBiT-BRM; for DC50: read-out: BRM HiBit Degradation IC50
T1 construct: expressed in transfected cells
In short: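 Stable HiBiT-BRM HeLa line; 24 h compound exposure, top final 30 μM, 3-fold, 10 pts in duplicate. Lytic HiBiT/LgBiT luminescence readout. % degradation vs DMSO (0%) and 2 μM known BRM/BRG1 degrader (100%).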

[2] = biological target: T2, HiBit-BRG1 fusion protein (Homo sapiens, UniProt P51532); experiment: HiBiT-BRG1 cell-based degradation assay (Nano-Glo HiBiT Lytic Detection, 24 h); details: HeLa cell line expressing HiBit-BRG1 and LgBit; for Dmax: read-out: BRG1 HiBit Degradation Maximum (%); for DC50: read-out: BRMG1 HiBit Degradation IC50
T2 construct: expressed in transfected cells
T2 sequence (P51532 whole entry, the tested form may be a part): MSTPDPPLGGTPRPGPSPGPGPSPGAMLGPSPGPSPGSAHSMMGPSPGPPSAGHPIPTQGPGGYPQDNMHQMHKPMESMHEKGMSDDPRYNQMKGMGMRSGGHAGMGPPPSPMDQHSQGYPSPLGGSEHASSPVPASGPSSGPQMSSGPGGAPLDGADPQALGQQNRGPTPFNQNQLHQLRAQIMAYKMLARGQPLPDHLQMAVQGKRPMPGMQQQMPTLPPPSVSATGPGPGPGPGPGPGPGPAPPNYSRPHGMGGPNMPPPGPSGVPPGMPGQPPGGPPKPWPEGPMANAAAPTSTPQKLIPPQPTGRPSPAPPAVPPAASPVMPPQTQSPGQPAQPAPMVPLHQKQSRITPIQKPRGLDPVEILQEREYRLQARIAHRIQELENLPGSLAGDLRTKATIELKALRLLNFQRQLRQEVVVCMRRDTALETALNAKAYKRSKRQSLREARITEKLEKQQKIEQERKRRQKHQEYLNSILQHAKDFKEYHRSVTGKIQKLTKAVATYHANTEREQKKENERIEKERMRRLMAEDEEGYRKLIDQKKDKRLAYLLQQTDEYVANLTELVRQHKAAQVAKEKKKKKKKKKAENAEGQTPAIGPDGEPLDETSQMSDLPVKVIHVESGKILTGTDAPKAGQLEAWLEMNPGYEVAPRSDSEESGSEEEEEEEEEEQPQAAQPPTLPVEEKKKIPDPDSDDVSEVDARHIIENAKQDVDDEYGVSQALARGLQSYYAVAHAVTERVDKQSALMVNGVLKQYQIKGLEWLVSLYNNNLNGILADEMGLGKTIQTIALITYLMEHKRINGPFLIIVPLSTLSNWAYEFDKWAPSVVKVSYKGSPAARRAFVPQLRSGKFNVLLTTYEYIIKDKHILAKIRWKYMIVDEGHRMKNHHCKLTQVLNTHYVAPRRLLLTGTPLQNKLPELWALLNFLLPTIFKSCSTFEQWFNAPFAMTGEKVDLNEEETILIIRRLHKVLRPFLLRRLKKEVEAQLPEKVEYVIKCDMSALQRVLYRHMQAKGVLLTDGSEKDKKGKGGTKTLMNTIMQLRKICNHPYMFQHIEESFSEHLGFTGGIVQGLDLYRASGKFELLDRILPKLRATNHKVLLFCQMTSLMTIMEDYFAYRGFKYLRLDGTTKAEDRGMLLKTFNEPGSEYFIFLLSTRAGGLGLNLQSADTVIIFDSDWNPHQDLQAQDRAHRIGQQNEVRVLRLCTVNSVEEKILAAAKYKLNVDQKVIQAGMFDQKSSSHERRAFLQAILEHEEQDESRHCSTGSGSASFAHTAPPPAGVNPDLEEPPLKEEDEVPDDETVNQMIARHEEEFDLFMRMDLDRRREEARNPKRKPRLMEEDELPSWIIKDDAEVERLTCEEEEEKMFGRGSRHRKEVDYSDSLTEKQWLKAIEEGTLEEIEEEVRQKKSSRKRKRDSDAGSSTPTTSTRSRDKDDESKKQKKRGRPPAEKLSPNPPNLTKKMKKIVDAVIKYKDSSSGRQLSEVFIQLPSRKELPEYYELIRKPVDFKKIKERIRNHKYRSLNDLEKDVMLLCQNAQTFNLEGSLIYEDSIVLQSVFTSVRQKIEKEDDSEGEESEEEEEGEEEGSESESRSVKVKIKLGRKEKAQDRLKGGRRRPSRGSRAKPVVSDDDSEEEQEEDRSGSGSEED
In short: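 Stable HeLa line co-expressing HiBit-BRG1 and LgBit, 5000 cells/well, treated 24 h in a tissue culture incubator. Lysed with Nano-Glo HiBiT lytic reagent, luminescence read. % degradation normalized to DMSO (high control) and 2 μM reference BRM/BRG1 degrader (low control).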

T1 sequence (P51531 whole entry, the tested form may be a part): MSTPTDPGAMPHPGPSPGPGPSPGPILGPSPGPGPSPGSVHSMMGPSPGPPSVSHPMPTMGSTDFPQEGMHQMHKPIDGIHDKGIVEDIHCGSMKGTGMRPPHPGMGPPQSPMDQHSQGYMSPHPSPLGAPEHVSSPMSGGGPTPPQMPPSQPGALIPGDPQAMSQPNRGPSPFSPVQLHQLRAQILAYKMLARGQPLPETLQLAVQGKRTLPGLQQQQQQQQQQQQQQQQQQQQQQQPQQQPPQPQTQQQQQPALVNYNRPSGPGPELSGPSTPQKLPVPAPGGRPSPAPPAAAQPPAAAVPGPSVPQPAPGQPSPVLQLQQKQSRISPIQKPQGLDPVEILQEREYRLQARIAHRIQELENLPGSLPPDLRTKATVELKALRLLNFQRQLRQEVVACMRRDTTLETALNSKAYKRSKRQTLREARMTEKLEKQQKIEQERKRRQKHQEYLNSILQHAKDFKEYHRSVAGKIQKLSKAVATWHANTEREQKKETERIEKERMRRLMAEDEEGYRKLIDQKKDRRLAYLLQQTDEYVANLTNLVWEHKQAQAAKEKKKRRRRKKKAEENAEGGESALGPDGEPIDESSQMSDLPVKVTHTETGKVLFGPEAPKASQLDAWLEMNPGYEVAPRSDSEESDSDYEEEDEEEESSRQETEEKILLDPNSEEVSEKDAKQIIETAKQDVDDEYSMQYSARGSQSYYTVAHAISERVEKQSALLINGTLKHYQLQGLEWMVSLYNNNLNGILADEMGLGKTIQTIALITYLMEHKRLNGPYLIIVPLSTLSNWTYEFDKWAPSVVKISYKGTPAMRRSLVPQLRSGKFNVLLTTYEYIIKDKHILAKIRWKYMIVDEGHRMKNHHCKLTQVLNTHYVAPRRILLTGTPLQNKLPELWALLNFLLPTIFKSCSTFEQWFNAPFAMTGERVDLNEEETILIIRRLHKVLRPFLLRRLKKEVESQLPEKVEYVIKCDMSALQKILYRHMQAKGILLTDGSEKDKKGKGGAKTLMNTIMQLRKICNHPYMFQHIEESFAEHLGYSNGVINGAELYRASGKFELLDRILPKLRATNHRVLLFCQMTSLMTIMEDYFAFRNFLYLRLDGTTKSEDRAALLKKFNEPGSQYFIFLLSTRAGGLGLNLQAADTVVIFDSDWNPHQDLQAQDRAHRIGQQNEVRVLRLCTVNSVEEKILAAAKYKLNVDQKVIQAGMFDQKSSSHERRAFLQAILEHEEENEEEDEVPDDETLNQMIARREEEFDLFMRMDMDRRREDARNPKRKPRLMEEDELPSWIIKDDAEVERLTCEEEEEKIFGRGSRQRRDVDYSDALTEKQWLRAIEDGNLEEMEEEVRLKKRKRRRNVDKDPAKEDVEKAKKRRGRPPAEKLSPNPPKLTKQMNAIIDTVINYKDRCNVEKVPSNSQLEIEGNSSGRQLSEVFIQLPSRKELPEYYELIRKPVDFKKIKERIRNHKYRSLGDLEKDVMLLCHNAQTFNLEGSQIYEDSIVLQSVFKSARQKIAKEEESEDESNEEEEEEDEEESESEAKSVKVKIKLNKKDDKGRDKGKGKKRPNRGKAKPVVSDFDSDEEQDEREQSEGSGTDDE

Structure (SMILES)	BRM HiBit Degradation Maximum (%) [1]	DC50 [1] [nM]	Dmax [2] [%]	DC50 [2] [nM]
Cc1ncsc1-c1ccc([C@H](C)NC(=O)[C@@H]2C[C@@H](O)CN2C(=O)[C@@H](c2cc(OCCN3CC[C@H](c4cc5cc(-c6ccccc6O)nnc5[nH]4)C3)no2)C(C)C)cc1 (racemic) [Compound 280, (2S,4R)-4-hydroxy-1-((R)-2-(3-(2-((S)-3-(3-(2-hydroxyphenyl)-7H-pyrrolo[2,3-c]pyridazin-6-yl)pyrrolidin-1-yl)ethoxy)isoxazol-5-yl)-3-methylbutanoyl)-N-((S)-1-(4-(4-methylthiazol-5-yl)phenyl)ethyl)pyrrolidine-2-carboxamide]	A (“A” indicates maximum degradation ≥ 75%)	> 10	< 50	–
Cc1ncsc1-c1ccc([C@H](C)NC(=O)[C@@H]2C[C@@H](O)CN2C(=O)[C@@H](c2cc(OCCN3CCC(c4c[nH]c5nnc(-c6ccccc6O)cc45)CC3)no2)C(C)C)cc1 (racemic) [Compound 282, (2S,4R)-4-hydroxy-1-((R)-2-(3-(2-(4-(3-(2-hydroxyphenyl)-7H-pyrrolo[2,3-c]pyridazin-5-yl)piperidin-1-yl)ethoxy)isoxazol-5-yl)-3-methylbutanoyl)-N-((S)-1-(4-(4-methylthiazol-5-yl)phenyl)ethyl)pyrrolidine-2-carboxamide]	A (“A” indicates maximum degradation ≥ 75%)	> 10	< 50	–
Cc1ncsc1-c1ccc([C@H](C)NC(=O)[C@@H]2C[C@@H](O)CN2C(=O)[C@@H](c2cc(OCCN3CCC[C@@H](c4c[nH]c5nnc(-c6ccccc6O)cc45)C3)no2)C(C)C)cc1 (racemic) [Compound 283, (2S,4R)-4-hydroxy-1-((R)-2-(3-(2-((S)-3-(3-(2-hydroxyphenyl)-7H-pyrrolo[2,3-c]pyridazin-5-yl)piperidin-1-yl)ethoxy)isoxazol-5-yl)-3-methylbutanoyl)-N-((S)-1-(4-(4-methylthiazol-5-yl)phenyl)ethyl)pyrrolidine-2-carboxamide]	B (“B” indicates maximum degradation ≥ 50%)	> 10	< 50	–
Cc1ncsc1-c1ccc([C@H](C)NC(=O)[C@@H]2C[C@@H](O)CN2C(=O)[C@@H](c2cc(OCCN(C)Cc3ccc(Cc4cc5cc(-c6ccccc6O)nnc5[nH]4)cc3)no2)C(C)C)cc1 (racemic) [Compound 284]	A (“A” indicates maximum degradation ≥ 75%)	> 10	> 75	> 100
Cc1ncsc1-c1ccc([C@H](C)NC(=O)[C@@H]2C[C@@H](O)CN2C(=O)[C@@H](c2cc(OCCN3CCC(F)(c4cc5cc(-c6ccccc6O)nnc5[nH]4)CC3)no2)C(C)C)cc1 (racemic) [Compound 285, (2S,4R)-1-((R)-2-(3-(2-(4-fluoro-4-(3-(2-hydroxyphenyl)-7H-pyrrolo[2,3-c]pyridazin-6-yl)piperidin-1-yl)ethoxy)isoxazol-5-yl)-3-methylbutanoyl)-4-hydroxy-N-((S)-1-(4-(4-methylthiazol-5-yl)phenyl)ethyl)pyrrolidine-2-carboxamide]	A (“A” indicates maximum degradation ≥ 75%)	> 100	> 50	> 100
Cc1ncsc1-c1ccc([C@H](C)NC(=O)[C@@H]2C[C@@H](O)CN2C(=O)[C@@H](c2cc(OCCN3CCCC(c4cc5cc(-c6ccccc6O)nnc5[nH]4)C3)no2)C(C)C)cc1 (mixture of isomers) [Compound 286, (2S,4R)-4-hydroxy-1-((2R)-2-(3-(2-(3-(3-(2-hydroxyphenyl)-7H-pyrrolo[2,3-c]pyridazin-6-yl)piperidin-1-yl)ethoxy)isoxazol-5-yl)-3-methylbutanoyl)-N-((S)-1-(4-(4-methylthiazol-5-yl)phenyl)ethyl)pyrrolidine-2-carboxamide]	A (“A” indicates maximum degradation ≥ 75%)	> 10	< 50	–
Cc1ncsc1-c1ccc([C@H](C)NC(=O)[C@@H]2C[C@@H](O)CN2C(=O)[C@@H](c2cc(OCCN3CC(c4cc5cc(-c6cc(F)cc(Cl)c6O)nnc5[nH]4)C3)no2)C(C)C)cc1 (racemic) [Compound 287, (2S,4R)-1-((R)-2-(3-(2-(3-(3-(3-chloro-5-fluoro-2-hydroxyphenyl)-7H-pyrrolo[2,3-c]pyridazin-6-yl)azetidin-1-yl)ethoxy)isoxazol-5-yl)-3-methylbutanoyl)-4-hydroxy-N-((S)-1-(4-(4-methylthiazol-5-yl)phenyl)ethyl)pyrrolidine-2-carboxamide]	B (“B” indicates maximum degradation ≥ 50%)	> 100	< 50	–
Cc1ncsc1-c1ccc([C@H](C)NC(=O)[C@@H]2C[C@@H](O)CN2C(=O)[C@@H](c2cc(OCCN3CC(c4cc5cc(-c6cc(F)ccc6O)nnc5[nH]4)C3)no2)C(C)C)cc1 (racemic) [Compound 288, (2S,4R)-1-((R)-2-(3-(2-(3-(3-(5-fluoro-2-hydroxyphenyl)-7H-pyrrolo[2,3-c]pyridazin-6-yl)azetidin-1-yl)ethoxy)isoxazol-5-yl)-3-methylbutanoyl)-4-hydroxy-N-((S)-1-(4-(4-methylthiazol-5-yl)phenyl)ethyl)pyrrolidine-2-carboxamide]	A (“A” indicates maximum degradation ≥ 75%)	> 100	< 50	–
Cc1ncsc1-c1ccc([C@H](C)NC(=O)[C@@H]2C[C@@H](O)CN2C(=O)[C@@H](c2cc(OCCN3CC(C(C)(C)c4cc5cc(-c6ccccc6O)nnc5[nH]4)C3)no2)C(C)C)cc1 (racemic) [Compound 289, (2S,4R)-4-hydroxy-1-((R)-2-(3-(2-(3-(2-(3-(2-hydroxyphenyl)-7H-pyrrolo[2,3-c]pyridazin-6-yl)propan-2-yl)azetidin-1-yl)ethoxy)isoxazol-5-yl)-3-methylbutanoyl)-N-((S)-1-(4-(4-methylthiazol-5-yl)phenyl)ethyl)pyrrolidine-2-carboxamide]	A (“A” indicates maximum degradation ≥ 75%)	> 10	< 50	–
Cc1ncsc1-c1ccc([C@H](C)NC(=O)[C@@H]2C[C@@H](O)CN2C(=O)[C@@H](c2cc(OCCN3CCC4(CC3)CC(c3cc5cc(-c6ccccc6O)nnc5[nH]3)C4)no2)C(C)C)cc1 (racemic) [Compound 290, (2S,4R)-4-hydroxy-1-((R)-2-(3-(2-(2-(3-(2-hydroxyphenyl)-7H-pyrrolo[2,3-c]pyridazin-6-yl)-7-azaspiro[3.5]nonan-7-yl)ethoxy)isoxazol-5-yl)-3-methylbutanoyl)-N-((S)-1-(4-(4-methylthiazol-5-yl)phenyl)ethyl)pyrrolidine-2-carboxamide]	A (“A” indicates maximum degradation ≥ 75%)	> 10	> 50	> 100
Cc1ncsc1-c1ccc([C@H](C)NC(=O)[C@@H]2C[C@@H](O)CN2C(=O)[C@@H](c2cc(OCCN3CCC[C@H](c4c[nH]c5nnc(-c6ccccc6O)cc45)C3)no2)C(C)C)cc1 (racemic) [Compound 291, (2S,4R)-4-hydroxy-1-((R)-2-(3-(2-((R)-3-(3-(2-hydroxyphenyl)-7H-pyrrolo[2,3-c]pyridazin-5-yl)piperidin-1-yl)ethoxy)isoxazol-5-yl)-3-methylbutanoyl)-N-((S)-1-(4-(4-methylthiazol-5-yl)phenyl)ethyl)pyrrolidine-2-carboxamide]	B (“B” indicates maximum degradation ≥ 50%)	> 10	< 50	–
